This experiment addresses human P2X3 receptor (Homo sapiens (Human), UniProt P56373). The experiment in a line: P2X3 receptor inhibition, ATP-evoked Fluo-3 calcium fluorescence (FDSS 3000). Format: cell-based. Conditions: C6BU-1 cell transfected with human P2X3 receptor gene; ATP-evoked Fluo-3 fluorescence. Put shortly: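 C6BU-1 cells stably transfected with human P2X3, loaded with 4 μM Fluo-3-AM for 1 h at 37 °C in HEPES buffer pH 7.5 with probenecid. Compound added 5 min before 40 nM ATP solution; fluorescence followed 3 min. IC50 from ratio of peak post-ATP to baseline fluorescence.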

human P2X3 receptor, sequence (P56373 whole entry): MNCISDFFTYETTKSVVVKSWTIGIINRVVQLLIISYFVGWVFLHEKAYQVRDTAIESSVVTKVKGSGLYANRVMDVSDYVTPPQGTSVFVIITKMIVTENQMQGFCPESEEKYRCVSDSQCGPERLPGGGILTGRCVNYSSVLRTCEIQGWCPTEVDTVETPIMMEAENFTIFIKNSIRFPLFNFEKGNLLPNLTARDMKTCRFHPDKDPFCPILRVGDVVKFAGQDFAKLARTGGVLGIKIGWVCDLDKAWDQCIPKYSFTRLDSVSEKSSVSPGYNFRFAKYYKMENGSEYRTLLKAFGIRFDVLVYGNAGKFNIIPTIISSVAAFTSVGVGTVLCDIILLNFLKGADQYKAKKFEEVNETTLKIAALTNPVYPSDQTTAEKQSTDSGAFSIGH

Broadly, the IC50 is the point on the concentration scale where inhibition reaches its midpoint. With `COCCOc1cc(F)ccc1C1C(C(=O)C(C)C)=C(O)C(=O)N1c1ccc(-c2noc(C)n2)cc1` (stereo not shown) [Compound I-369], the IC50 turned out to be 91 nM.

For `CO/N=C(/C)c1ccc(N2C(=O)c3[nH]nc(C(C)(C)C)c3C2c2ccccc2OC)cc1` (stereo not shown) [II-156], the IC50 came to 412 nM.

Take `CN(C)C(=O)c1ccccc1C1C(C(=O)C2CCCC2)=C(O)C(=O)N1c1ccc(-c2ccsc2)cc1` (stereo not shown) [Compound I-514]: the IC50 stood at 138 nM.

Regarding `COCCOc1ccccc1C1c2c(C(C)(C)CO)n[nH]c2C(=O)N1c1ccc(-c2ccon2)cc1` (stereo not shown) [II-132], the IC50 is 141 nM.

For the compound `COc1ccc(C(=O)C2=C(O)C(=O)N(c3ccc(-c4cc(C)on4)cc3)C2c2ccccc2OC)cc1` (stereo not shown) [Compound I-480], the IC50 stood at 42 nM.

Consider `COCCOc1ncccc1C1c2c(C(C)C)n[nH]c2C(=O)N1c1ccc(-c2ccon2)cc1` (stereo not shown) [II-279], for which the IC50 was found to be 378 nM.

On to `COc1ccc(C(=O)C2=C(O)C(=O)N(c3ccc(-c4nc(C)no4)cc3)C2C2CCCCC2)cc1` (stereo not shown) [Compound I-020], for which the IC50 is 21 nM.

On to `COc1ncccc1C1C(C(=O)CC(C)C)=C(O)C(=O)N1c1ccc(-c2ccsc2)cc1` (stereo not shown) [Compound I-291], for which the IC50 amounted to 130 nM.

Turning to `COCCOc1ccccc1C1c2c(C(C)(C)C)n[nH]c2C(=O)N1c1ccc(-c2ccco2)cc1` (stereo not shown) [II-027], the IC50 came to 8 nM.

On to `COCCOc1ccccc1C1C(C(=O)CC(C)C)=C(O)C(=O)N1c1ccc(-c2ccc(C)o2)cc1` (stereo not shown) [Compound I-381], for which the IC50 came to 7 nM.

Take `COc1ccccc1C1c2c(C(C)(C)c3ccccc3)n[nH]c2C(=O)N1c1ccc(-c2ccon2)cc1` (stereo not shown) [II-199]: the IC50 stood at 113 nM.

For the compound `COc1ccccc1C1c2c(C(C)(CO)CO)n[nH]c2C(=O)N1c1ccc(-c2ccon2)cc1` (stereo not shown) [II-258], the IC50 came out at 304 nM.

Turning to `Cc1nc(-c2ccc(N3C(=O)C(O)=C(C(=O)C(C)C)C3c3cccnc3N3CCOCC3)cc2)no1` (stereo not shown) [Compound I-524], the IC50 was determined as 696 nM.

On to `CC(C)(C)c1n[nH]c2c1C(c1cccnc1OCCO)N(c1ccc(-c3ccon3)cc1)C2=O` (stereo not shown) [II-036], for which the IC50 was 231 nM.

With `COCCOc1ccccc1C1c2c(C(C)(C)C)n[nH]c2C(=O)N1c1ccc(-c2ccoc2)cc1` (stereo not shown) [II-125], the IC50 turned out to be 10 nM.

Consider `COc1ccccc1C1c2c(C(C)(C)C)n[nH]c2C(=O)N1c1ccc(-c2cccs2)cc1` (stereo not shown) [II-213], for which the IC50 amounted to 11 nM.

Turning to `COc1ccccc1C1C(C(=O)C(F)(F)F)=C(O)C(=O)N1c1ccc(-c2ccon2)cc1` (stereo not shown) [Compound I-010], the IC50 stood at 595 nM.

With `Cc1ccc(-c2ccc(N3C(=O)C(O)=C(C(=O)C(C)C)C3c3ccccc3OC(F)(F)F)cc2)s1` (stereo not shown) [Compound I-334], the IC50 is 78 nM.

As to `COC(=O)COc1ccccc1C1c2c(C(C)(C)C)n[nH]c2C(=O)N1c1ccc(-c2ccsc2)cc1` (stereo not shown) [II-020], the IC50 worked out at 8 nM.

In the case of `COc1ccccc1C1c2c(C(C)(C)COC(C)=O)n[nH]c2C(=O)N1c1ccc(SC)cc1` (stereo not shown) [II-010], the IC50 was found to be 134 nM.

Consider `Cc1nc(-c2ccc(N3C(=O)C(O)=C(C(=O)C(C)C)C3c3ccccc3OCC(C)C)cc2)no1` (stereo not shown) [Compound I-451], for which the IC50 worked out at 19 nM.

In the case of `CN(C)CCOc1ccccc1C1c2c(C(C)(C)C)n[nH]c2C(=O)N1c1ccc(-c2ccon2)cc1` (stereo not shown) [II-030], the IC50 turned out to be 128 nM.

Take `CC(C)(C)C(=O)C1=C(O)C(=O)N(c2ccc(-c3ccon3)cc2)C1c1ccccc1S(C)(=O)=O` (stereo not shown) [Compound I-111]: the IC50 was determined as 624 nM.

`COCCOCc1ncccc1C1C(C(=O)C(C)(C)C)=C(O)C(=O)N1c1ccc(-c2ccsc2)cc1` (stereo not shown) [Compound I-168]: the IC50 turned out to be 120 nM.

`Cc1ccc(-c2ccc(N3C(=O)C(O)=C(C(=O)CC(C)C)C3c3ccccc3OC(F)(F)F)cc2)o1` (stereo not shown) [Compound I-362]: the IC50 is 40 nM.

For `CC(C)C(=O)C1=C(O)C(=O)N(c2ccc(-c3ccon3)cc2)C1c1ccccc1OCCO` (stereo not shown) [Compound I-191], the IC50 was found to be 279 nM.

As to `COc1ccccc1C1c2c(C(C)(C)CO)n[nH]c2C(=O)N1c1ccc(-c2cc(C)no2)cc1` (stereo not shown) [II-136], the IC50 came to 55 nM.

Take `COc1ccccc1C1c2c(C(C)(C)C)n[nH]c2C(=O)N1c1ccc(-c2ccco2)cn1` (stereo not shown) [II-257]: the IC50 came to 33 nM.

On to `COc1ccccc1C1c2c(C(C)C)n[nH]c2C(=O)N1c1ccc(-c2ccsc2)cc1` (stereo not shown) [II-079], for which the IC50 is 11 nM.

As to `COc1ccc(C2(c3n[nH]c4c3C(c3ccccc3OC)N(c3ccc(-c5ccon5)cc3)C4=O)CC2)cc1` (stereo not shown) [II-198], the IC50 came out at 123 nM.

Turning to `COCCOc1cc(F)ccc1C1C(C(=O)C(C)C)=C(O)C(=O)N1c1ccc(-c2ccsc2)cc1` (stereo not shown) [Compound I-363], the IC50 was found to be 7 nM.

On to `Cc1ncccc1C1c2c(C(C)(C)C)n[nH]c2C(=O)N1c1ccc(-c2cccs2)cc1` (stereo not shown) [II-121], for which the IC50 was 464 nM.

Turning to `CC(C)(C)C(=O)C1=C(O)C(=O)N(c2ccc(-c3cccs3)cc2)C1c1cccnc1OCCO` (stereo not shown) [Compound I-172], the 50% inhibitory concentration (IC50) stood at 24 nM.

With `COC(=O)COCc1ncccc1C1C(C(=O)C(C)(C)C)=C(O)C(=O)N1c1ccc(-c2ccsc2)cc1` (stereo not shown) [Compound I-181], the IC50 was 114 nM.

For `CC(C)CC(=O)C1=C(O)C(=O)N(c2ccc(SC(F)(F)F)cc2)C1c1ccccc1OC(C)C` (stereo not shown) [Compound I-447], the IC50 amounted to 128 nM.

Take `COCCOc1ccccc1C1C(C(=O)C(C)C)=C(O)C(=O)N1c1ccc(-c2ccco2)cc1` (stereo not shown) [Compound I-231]: the IC50 came to 23 nM.

Turning to `Cc1nc(-c2ccc(N3C(=O)C(O)=C(C(=O)C(C)C)C3c3ccccc3OCC3OCCO3)cc2)no1` (stereo not shown) [Compound I-501], the IC50 was determined as 52 nM.

As to `COCCOc1ncccc1C1c2c(C(C)(C)C)n[nH]c2C(=O)N1c1ccc(SC)cc1` (stereo not shown) [II-034], the IC50 worked out at 46 nM.

Regarding `COCCCOc1ncccc1C1C(C(=O)C(C)C)=C(O)C(=O)N1c1ccc(-c2ccoc2)cc1` (stereo not shown) [Compound I-567], the half-maximal inhibitory concentration (IC50) was 57 nM.

For `Cc1nc(-c2ccc(N3C(=O)C(O)=C(C(=O)C(C)C)C3c3ccccc3OC3CCCC3)cc2)no1` (stereo not shown) [Compound I-503], the IC50 was determined as 17 nM.

For the compound `CCOC(=O)C(C)(C)C(=O)C1=C(O)C(=O)N(c2ccc(-c3csc(C)c3)cc2)C1c1ccccc1OC` (stereo not shown) [Compound I-470], the IC50 was determined as 972 nM.

`Cc1cc(-c2ccc(N3C(=O)C(O)=C(C(=O)CC(C)C)C3c3ccccc3OCCO)cc2)cs1` (stereo not shown) [Compound I-374]: the IC50 was 40 nM.

As for `CC(C)c1n[nH]c2c1C(c1ccccc1CO)N(c1ccc(-c3ccsc3)cc1)C2=O` (stereo not shown) [II-086], the IC50 was found to be 32 nM.

As for `COc1ncccc1C1C(C(=O)C(C)(C)C)=C(O)C(=O)N1c1ccc(SC)cc1` (stereo not shown) [Compound I-066], the IC50 worked out at 434 nM.

As for `COCCOc1ncccc1C1C(C(=O)C(C)(C)C)=C(O)C(=O)N1c1ccc(-c2ccon2)cc1` (stereo not shown) [Compound I-139], the IC50 stood at 930 nM.

As to `CC(C)C(=O)C1=C(O)C(=O)N(c2ccc(-c3ccsc3)cc2)C1c1ccccc1OCC(CO)CO` (stereo not shown) [Compound I-456], the IC50 was found to be 6 nM.

`CC(C)(C)C(=O)C1=C(O)C(=O)N(c2ccc(-c3ccon3)cc2)C1c1ccccc1OCC#N` (stereo not shown) [Compound I-103]: the IC50 was determined as 355 nM.

As to `CCNC(=O)c1ncccc1C1C(C(=O)CC(C)C)=C(O)C(=O)N1c1ccc(-c2ccc(C)s2)cc1` (stereo not shown) [Compound I-530], the IC50 came out at 237 nM.

Regarding `COCCN(C)C(=O)c1ccccc1C1C(C(=O)CC(C)C)=C(O)C(=O)N1c1ccc(-c2csc(C)c2)cc1` (stereo not shown) [Compound I-497], the IC50 is 36 nM.

The values are drawn from patent publication US8575197B2, “Pyrolinone derivative and pharmaceutical composition comprising the same” (Shionogi & Co., Ltd., priority 2008, dated 2013).
